Assay results from publication PMC3463587, “A Series of Beta-Carboline Derivatives Inhibit the Kinase Activity of PLKs” (PLoS ONE, 2012).

Legend:
CDK1/cyclinB(h) = CDK1/cyclinB(h) (Homo sapiens, UniProt P06493); assay: In vitro kinase assay CDK1/cyclinB (33P-ATP); assay type: biochemical
Protocol: (§1) The inhibition of PLK1 kinase activity was assessed using the Cyclex PLK1 Assay/Inhibitor Screening Kit (MBL International Corporation, Japan). The kit includes anti-phospho-threonine polyclonal antibody (PPT-07) and peroxidase coupled anti-rabbit IgG antibody as a reporter in a 96-well ELSIA format. Compounds were used at the concentrations from 10^− ^3 to 10^2 µg/ml and the absorbance was determined at 450 nm. A similar protocol was used to determine the kinase inhibition for PLK2, PLK3, Aurora A and Aurora B. The kinase activity of CDK1/cyclinB and CDK2/cyclinE was analyzed in the presence of serially diluted inhibitors. For each reaction, 20 ng of recombinant kinase was used and […] casein from bovine milk (Sigma) was added as the kinase substrate. The kinase reaction buffer contains 8 mM MOPS pH7.0, 0.2 mM EDTA, 0.1 mg/ml histone H1, 10 mM and MgAcetace and [γ^− ^33P-ATP] (500 cpm/pmol). The reaction was initiated by adding the MgATP mix. After incubation for 40 minutes at room temperature, the reaction was stopped by the addition of 3% phosphoric acid solution. We spotted 10 µl of the reaction mixture onto a P30 filtermat and washed three times for 5 min with 75 mM phosphoric acid and once with methanol prior to drying and scintillation counting.

HeLa cells [1] = assay: Immunofluorescence of spindle (anti-α-tubulin); assay type: cell-based, human; settings: 1.21 µM, 24 hr
Description: PLK1 plays a pivotal role in centrosome maturation and spindle formation during mitosis. Thus, the down-regulation of PLK1 activity would prevent centrosome maturation as well as the formation of a bipolar spindle. Anti-α-tubulin antibody was used for immunofluorescence staining in order to examine the spindle structure in cells treated with the beta-carboline compounds.
HeLa cells were collected and then grown onto cover-slips. […] After washed with washing buffer (Beyotime, P0106) for 3 times, the cells were incubated with blocking buffer (Beyotime, P0102) for 60 min. The primary antibody anti-α-tubulin (Abcam) was used at 1∶200 dilutions; H&L (Cy5)-labeled secondary antibody was used at 1∶200 dilutions. The cover-slips were then mounted with PBS:glycerol (1∶1) mounting medium containing DAPI and examined under an inverted confocal microscope. Images were analyzed by the 3D image software Volocity (Improvision).

HeLa cells [2] = assay: MTT cell proliferation assay, HeLa; assay type: cell-based; settings: Homo sapiens, 48 hr
Description: BI2536 was purchased from Selleck (Selleck, USA).

[3] = tested on: cdc5-2 mutant yeast cells; assay: Yeast growth inhibition (MIC), cdc5-2 mutant; settings: 25°C, 24 hr
Protocol: The Cdc5 kinase is the functional homologue of PLK1 in budding yeast and the incubation of cdc5-2 mutants at 37°C impairs the kinase activity and stops cell growth. […] We also compared the sensitivity of wild-type and cdc5-2 mutant cells to the selected compounds at different concentrations. […] The temperature sensitive cdc5-2 mutants and wild-type strains were used. […] After incubation at 25°C for 24 hr, the growth of the yeast cells was determined by measuring OD600.

HeLa cells [4] = assay: FITC-Annexin V/PI apoptosis assay, HeLa; assay type: cell-based, human
Description: Staining with Annexin V–FITC and propidium iodide (PI) is commonly used to distinguish apoptotic, necrotic, and dead cells. PI is impermeant to live cells and apoptotic cells at early stages, but it stains dead cells and apoptotic cells at late stages through its binding to the nucleic acids. Apoptotic cells in early or late stages are stained positively for Annexin V-FITC that binds to phosphotidylserine. We used FACS analysis to determine the proportion of HeLa cells positive for Annexin V-FITC (FITC), PI, or both. The HeLa cells with PI^−/PI^+ FITC^+ were counted as apoptotic cells (Figure 5). […] However, 16.19% (3.96+12.23) of HeLa cells became FITC positive after treatment with 1.05 µM DH281 for 48 hr. The treatment with 5.25 µM DH281 induced apoptosis among 89.6% (89.51+0.09) of HeLa cells (Table 5). […] In contrast to HeLa cells, the induction of apoptosis by DH281 was much less efficient in non-cancer MRC5 cells (Table 5). Therefore, we conclude that the treatment with compounds DH281, DH285 and DH287 induces substantial apoptosis in HeLa cells, but non-cancer MRC5 cells are much less sensitive to the treatment. The distinct apoptotic responses of HeLa and MRC5 cells to beta-carboline compounds could explain the selectivity of PLK1 inhibitors toward cancer cells.
HeLa cells were either treated with 0, 0.21, 1.05 and 5.25 µM of DH281, DH285 and DH287 for 48 hr, or treated with 1.21 µM compounds for 24, 48 and 72 hr, while MRC5 cells were exposed to compounds at 0, 0.21, 1.05, and 5.25 µM for 48 hr. The cultured cells were harvested, washed three times with PBS, and resuspended in 500 µl binding buffer (10 mM Hepes/sodium hydroxide (pH7.4), 140 mM sodium chloride, and 2.5 mM CaCl2). Then 5 µl FITC-labeled Annexin V (Zhongshan JinQiao Biotechnology Ltd., Beijing) was added and the cells were incubated in the dark for 10 min. We added 5 µl of propidium iodide (PI) (10 µg/ml in binding buffer) to each sample before flow cytometry analysis.

MRC5 cells = assay: cells; settings: Homo sapiens, MRC5, 48 h, read-out: IC50 MRC5, MTT, 48 hr, non-cancer cells
Protocol: All the beta-carboline derivatives were provided by Xinjiang Huashidan Pharmaceutical Co. Ltd. The culture media and fetal bovine serum (FBS) were purchased from Hyclone (Hyclone Laboratories Inc., USA). […] All the cell lines were obtained from the Cell Culture Centre, Institute of Basic Medical Science, Chinese Academy of Medical Science and incubated at 37°C supplied with 5% CO2. HeLa cells were grown in standard DMEM with 10% FBS.
MRC5, HeLa, HepG2, PC3 and MG63 cells were seeded at 3000–6000 cells/well (200 µl/well) in a 96-well plate and incubated overnight. Then different concentrations of compounds were added into the cell cultures with a final concentration of 0.1% DMSO and incubated for an additional 48 hr. After that, 22 µl MTT solution (5 mg/ml) was added into each well and incubated at 37°C for 4 hr.

[5] = tested on: four cancer cell lines (HepG2, MG63, HeLa and PC3); assay: Growth inhibition of four cancer cell lines; assay type: cell-based, Human
Description: In order to find more efficient antitumor small molecules targeting PLK1, we synthesized additional 18 beta-carboline compounds and the structures of these compounds are shown in Figure 1. The growth inhibition of four cancer cell lines (HepG2, MG63, HeLa and PC3) by these compounds was examined. […] We selected DH281, DH285 and DH287 for further studies.

PLK2 = PLK2 (Homo sapiens, UniProt Q9NYY3); assay: In vitro kinase assay PLK2; assay type: biochemical
Chain of PLK2 (Q9NYY3 whole entry, species assumed): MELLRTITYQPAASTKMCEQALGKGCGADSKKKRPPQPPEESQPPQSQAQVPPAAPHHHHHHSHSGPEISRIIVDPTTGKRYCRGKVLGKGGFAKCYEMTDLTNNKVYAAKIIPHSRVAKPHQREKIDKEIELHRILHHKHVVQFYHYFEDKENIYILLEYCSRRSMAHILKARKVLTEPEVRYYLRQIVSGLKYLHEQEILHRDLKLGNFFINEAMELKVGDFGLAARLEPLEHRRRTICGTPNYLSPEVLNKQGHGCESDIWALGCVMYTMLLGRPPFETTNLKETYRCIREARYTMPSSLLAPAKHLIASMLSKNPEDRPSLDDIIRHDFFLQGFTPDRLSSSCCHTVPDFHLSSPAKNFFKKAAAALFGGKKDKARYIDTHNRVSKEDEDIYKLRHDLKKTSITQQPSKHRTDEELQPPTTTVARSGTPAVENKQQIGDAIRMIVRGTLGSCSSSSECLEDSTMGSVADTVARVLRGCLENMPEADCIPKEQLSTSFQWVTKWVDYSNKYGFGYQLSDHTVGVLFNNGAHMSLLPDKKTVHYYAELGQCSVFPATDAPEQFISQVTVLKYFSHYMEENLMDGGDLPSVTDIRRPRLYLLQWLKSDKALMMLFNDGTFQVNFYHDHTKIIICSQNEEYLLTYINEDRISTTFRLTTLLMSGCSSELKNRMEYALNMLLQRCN
Protocol: as §1

Chain of CDK1/cyclinB(h) (P06493 whole entry): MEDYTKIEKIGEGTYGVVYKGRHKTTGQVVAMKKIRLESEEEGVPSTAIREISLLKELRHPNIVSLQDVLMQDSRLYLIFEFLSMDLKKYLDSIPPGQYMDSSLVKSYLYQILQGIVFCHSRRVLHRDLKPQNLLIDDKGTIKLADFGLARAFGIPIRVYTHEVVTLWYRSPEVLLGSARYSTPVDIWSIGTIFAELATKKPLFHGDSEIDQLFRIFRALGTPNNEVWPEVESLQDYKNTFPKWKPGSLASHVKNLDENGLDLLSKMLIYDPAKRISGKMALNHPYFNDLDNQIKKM
Chain of CDK1/cyclinB(h) (P14635 whole entry partner): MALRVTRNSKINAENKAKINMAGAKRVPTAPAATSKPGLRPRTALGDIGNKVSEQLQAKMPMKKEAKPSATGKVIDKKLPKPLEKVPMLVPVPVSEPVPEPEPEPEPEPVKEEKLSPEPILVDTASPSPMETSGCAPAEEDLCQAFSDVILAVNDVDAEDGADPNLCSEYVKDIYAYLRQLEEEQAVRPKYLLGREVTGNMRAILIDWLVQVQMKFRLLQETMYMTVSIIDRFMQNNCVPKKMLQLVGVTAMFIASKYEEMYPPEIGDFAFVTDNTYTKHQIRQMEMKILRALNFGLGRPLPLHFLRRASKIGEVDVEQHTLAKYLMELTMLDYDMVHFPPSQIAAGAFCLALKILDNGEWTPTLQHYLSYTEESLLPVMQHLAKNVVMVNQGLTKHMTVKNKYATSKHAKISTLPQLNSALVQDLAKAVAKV

Row | SMILES | IC50 (CDK1/cyclinB(h)) | spindle structure (HeLa cells [1]) | IC50 (HeLa cells [2]) | difference in the MICs, cdc5-2 compared to wild-type cells [3] | PI+ FITC+ (late apoptotic cells) (HeLa cells [4]; 0.21 µM, 48 hr) | PI+ FITC− (dead cells) (HeLa cells [4]; 0.21 µM, 48 hr) | PI− FITC+ (early apoptotic cells) (HeLa cells [4]; 0.21 µM, 48 hr) | PI− FITC− (live cells) (HeLa cells [4]; 0.21 µM, 48 hr) | PI+ FITC+ (late apoptotic cells) (HeLa cells [4]; 1.05 µM, 48 hr) | PI+ FITC− (dead cells) (HeLa cells [4]; 1.05 µM, 48 hr) | PI− FITC+ (early apoptotic cells) (HeLa cells [4]; 1.05 µM, 48 hr) | PI− FITC− (live cells) (HeLa cells [4]; 1.05 µM, 48 hr) | PI+ FITC+ (late apoptotic cells) (HeLa cells [4]; 1.21 µM, 24 hr) | PI+ FITC− (dead cells) (HeLa cells [4]; 1.21 µM, 24 hr) | PI− FITC+ (early apoptotic cells) (HeLa cells [4]; 1.21 µM, 24 hr) | PI− FITC− (live cells) (HeLa cells [4]; 1.21 µM, 24 hr) | PI+ FITC+ (late apoptotic cells) (HeLa cells [4]; 1.21 µM, 48 hr) | PI+ FITC− (dead cells) (HeLa cells [4]; 1.21 µM, 48 hr) | PI− FITC+ (early apoptotic cells) (HeLa cells [4]; 1.21 µM, 48 hr) | PI− FITC− (live cells) (HeLa cells [4]; 1.21 µM, 48 hr) | further results
1 | Cc1c2c(cc[n+]1Cc1ccccc1)c1ccc(OCc3ccc(F)cc3)cc1n2CCCc1ccccc1 [DH281] | 42.1 µM | induced formation of monopolar spindles | 0.51 ± 0.08 µM | 2 to 4 fold | 3.22% | 3.24% | 0.97% | 92.57% | 3.96% | 10.22% | 12.23% | 73.59% | 10.65% | 2.52% | 1.42% | 85.41% | 8.91% | 3.31% | 16.20% | 71.58% | FITC positive (apoptotic) cells, early + late (HeLa cells [4]; 1.05 µM, 48 hr): 16.19%; PI+ FITC+ (late apoptotic cells) (HeLa cells [4]; 1.21 µM, 72 hr): 5.97%; PI+ FITC− (dead cells) (HeLa cells [4]; 1.21 µM, 72 hr): 1.41%; PI− FITC+ (early apoptotic cells) (HeLa cells [4]; 1.21 µM, 72 hr): 39.54%; PI− FITC− (live cells) (HeLa cells [4]; 1.21 µM, 72 hr): 53.08%; FITC positive (apoptotic) cells, early + late (HeLa cells [4]; 5.25 µM, 48 hr): 89.6%; PI+ FITC+ (late apoptotic cells) (HeLa cells [4]; 5.25 µM, 48 hr): 0.09%; PI+ FITC− (dead cells) (HeLa cells [4]; 5.25 µM, 48 hr): 0.37%; PI− FITC+ (early apoptotic cells) (HeLa cells [4]; 5.25 µM, 48 hr): 89.51%; PI− FITC− (live cells) (HeLa cells [4]; 5.25 µM, 48 hr): 10.03%; IC50 (MRC5 cells): 4.73 ± 0.51 µM; antitumor activity (growth inhibition) [5]: very strong growth inhibition; IC50 (PLK2): 3.82 µM
2 | Cc1c2c(cc[n+]1Cc1ccccc1)c1ccc(OCc3ccccc3)cc1n2Cc1ccccc1 [DH287] | 39.4 µM | induced formation of monopolar spindles | 1.82 ± 0.15 µM | 2 to 4 fold | 2.16% | 3.48% | 1.12% | 93.25% | 5.20% | 9.81% | 7.20% | 77.8% | 10.88% | 3.56% | 10.39% | 75.17% | 8.31% | 7.05% | 25.70% | 58.94% | PI+ FITC+ (late apoptotic cells) (HeLa cells [4]; 1.21 µM, 72 hr): 1.19%; PI− FITC+ (early apoptotic cells) (HeLa cells [4]; 1.21 µM, 72 hr): 55.98%; PI− FITC− (live cells) (HeLa cells [4]; 1.21 µM, 72 hr): 38.27%; PI+ FITC+ (late apoptotic cells) (HeLa cells [4]; 5.25 µM, 48 hr): 5.58%; PI+ FITC− (dead cells) (HeLa cells [4]; 5.25 µM, 48 hr): 8.71%; PI− FITC+ (early apoptotic cells) (HeLa cells [4]; 5.25 µM, 48 hr): 65.36%; PI− FITC− (live cells) (HeLa cells [4]; 5.25 µM, 48 hr): 20.35%; IC50 (MRC5 cells): 3.03 µM; antitumor activity (growth inhibition) [5]: very strong growth inhibition; IC50 (PLK2): 4.3 µM
